From patent US20150132852A1, “TISSUE CULTURING METHOD, CULTURING METHOD OF FERNS AND EXPLANT OBTAINED THEREFROM” (Chunghwa Picture Tubes, Ltd., priority 2013, published 2015)

What was measured:
[1] = tested on: callus rounds of Davallia mariesii; experiment: Sporophyte regeneration from callus rounds under various cytokinins; format: cell-based
Protocol: Finally, the callus round is further cultured in a culture fluid at 23° C. to 25° C. and 11 to 14 μmol^−2 s^−1 (Light:Dark=16:8) for between to 150 days (preferably for 120 days), and are preferably sub-cultured every fifteen days till the callus round regenerates a sporophyte. In this situation, the callus round will keep on growing, and can reach 0.57 cm to 0.7 cm in diameter after approximately 60 days, and reach 1.2 cm to 1.34 cm in 120 days. In the present example, the culture fluid comprises ½ MS medium. In other examples, the culture fluid can further comprise 1 to 5 mg/l N6-(delta 2-isopentenyl)-adenine (2ip), 6-benzylaminopurine (BA) and kinetin, particularly for 1 mg/l N6-(delta 2-isopentenyl)-adenine (2ip). […] Additionally, a regenerated sporophyte of the present example can be further transplanted to a solid medium till it has more than 3 cm length (preferably for 3.5 cm length) for growing into a plant, wherein the plant has a survival rate of up to 90.3%. In the present experiment, callus rounds, being 0.14±0.03 g and 0.21±0.02, are prepared wherein every four are cultured in a culture fluid to induce the callus rounds to regenerate sporophytes, wherein the medium comprises ½ MS medium (including a small amount of sucrose, namely 20 g/l sucrose) and various cytokinins in various amounts as listed in TABLE 3. After 60 days and 120 days of culturing, respectively, sporophytes obtained in each medium are collected and analyzed to record the size of the callus rounds and the number and length of sporophytes regenerated from the callus rounds.

[2] = tested on: chopped prothallium of Davallia mariesii; experiment: Calluses induction from chopped prothallium under various growth regulators; format: cell-based; conditions: 60 days
Protocol: The prothallium is chopped up into small pieces being 0.1 cm to 0.2 cm in width and cultured (suspending culture) in a medium, wherein the medium comprises ½ MS medium (Murashige and Skoog, 1962) having a composition as shown in TABLE 1. In other examples, the medium can also comprise Knop medium (Murashige and Skoog, 1962) or knudson medium (Knudson, 1946). Precisely, 0.1 g chopped prothallium are cultured in 10 ml ½ MS medium, which are shake cultured at 85 rpm for forty to eighty days, and preferably at 23° C. to 25° C. and 11 to 14 μmol^−2 s^−1 (Light:Dark=16:8) for sixty days, and are sub-cultured every thirty days. In the present experiment, a plurality of 50 ml flasks are prepared, each having 0.1 g chopped prothallium of Davallia mariesii (in 0.1 cm to 0.2 cm pieces) being cultured in a medium therein, wherein the medium comprises 10 ml ½ MS medium (including a small amount of sucrose, namely 20 g/l sucrose) and various growth regulators in various amounts as listed in TABLE 2. After 60 days of culturing, calluses obtained in each flask are collected and analyzed respectively, to record the size, weight and number of each callus.

[3] = 1 mg/l in culture fluid, 120 days
[4] = single growth regulator 1 mg/L in 1/2 MS medium
[5] = single growth regulator 2 mg/L in 1/2 MS medium
[6] = single growth regulator 5 mg/L in 1/2 MS medium

| Structure (SMILES) | Diameter (cm) of callus round and sporophyte thereon ([1]; cytokinin 1 mg/L, 60 days) | Induction Rate (%) of sporophyte ([1]; cytokinin 1 mg/L, 60 days) | Proliferation Rate (%) of callus round ([1]; cytokinin 1 mg/L, 60 days) | Diameter (cm) of callus round and sporophyte thereon ([1]; cytokinin 1 mg/L, 120 days) | Induction Rate (%) of sporophyte ([1]; cytokinin 1 mg/L, 120 days) | Proliferation Rate (%) of callus round ([1]; cytokinin 1 mg/L, 120 days) | Diameter (cm) of callus round and sporophyte thereon ([1]; cytokinin 2 mg/L, 60 days) | Induction Rate (%) of sporophyte ([1]; cytokinin 2 mg/L, 60 days) | Proliferation Rate (%) of callus round ([1]; cytokinin 2 mg/L, 60 days) | Diameter (cm) of callus round and sporophyte thereon ([1]; cytokinin 2 mg/L, 120 days) | Induction Rate (%) of sporophyte ([1]; cytokinin 2 mg/L, 120 days) | Proliferation Rate (%) of callus round ([1]; cytokinin 2 mg/L, 120 days) | Diameter (cm) of callus round and sporophyte thereon ([1]; cytokinin 5 mg/L, 60 days) | Induction Rate (%) of sporophyte ([1]; cytokinin 5 mg/L, 60 days) | Proliferation Rate (%) of callus round ([1]; cytokinin 5 mg/L, 60 days) | Diameter (cm) of callus round and sporophyte thereon ([1]; cytokinin 5 mg/L, 120 days) | Induction Rate (%) of sporophyte ([1]; cytokinin 5 mg/L, 120 days) | Proliferation Rate (%) of callus round ([1]; cytokinin 5 mg/L, 120 days) | Calluses (numbers), callus round in 0.1-0.2 cm [2, 4] | Proliferation Rate (%) [2, 4] | further results |
| --- | --- | --- | --- | --- | --- | --- | --- | --- | --- | --- | --- | --- | --- | --- | --- | --- | --- | --- | --- | --- | --- |
| CC(C)=CCNc1ncnc2nc[nH]c12 [2ip, N6-(delta 2-isopentenyl)-adenine] | 0.57 ± 0.04 cm | 100.0% | 208.9 ± 24.1% | 1.34 ± 0.22 cm | 100.0% | 537.5 ± 161.2% | 0.60 ± 0.03 cm | 100.0% | 156.0 ± 22.2% | 1.46 ± 0.21 cm | 100.0% | 386.3 ± 99.7% | 0.38 ± 0.03 cm | 0.0% | 64.9 ± 18.3% | 0.91 ± 0.24 cm | 8.3% | 208.3 ± 67.9% |  |  | induction rate of sporophytes [1, 3]: 100%; proliferation rate of the callus [1, 3]: 537±161.2% |
| c1ccc(CNc2ncnc3nc[nH]c23)cc1 [BA, 6-benzylaminopurine] | 0.29 ± 0.05 cm | 0.0% | 40.5 ± 16.6% | 0.97 ± 0.15 cm | 0.0% | 191.1 ± 71.5% | 0.42 ± 0.06 cm | 0.0% | 89.9 ± 22.9% | 0.77 ± 0.13 cm | 0.0% | 300.0 ± 38.6% | 0.41 ± 0.06 cm | 0.0% | 41.1 ± 16.3% | 0.88 ± 0.16 cm | 0.0% | 216.7 ± 38.7% |  |  |  |
| c1coc(CNc2ncnc3nc[nH]c23)c1 [Kinetin, 6-Furfurylamino-purine] | 0.31 ± 0.06 cm | 0.0% | 82.1 ± 24.3% | 0.63 ± 0.09 cm | 16.7% | 231.0 ± 83.5% | 0.23 ± 0.05 cm | 0.0% | 47.0 ± 12.2% | 1.02 ± 0.06 cm | 0.0% | 182.1 ± 88.4% | 0.32 ± 0.07 cm | 0.0% | 72.6 ± 17.5% | 1.13 ± 0.10 cm | 0.0% | 217.9 ± 70.9% | 73.67 ± 14.38 numbers | 153.3 ± 24.9% | Calluses (numbers), callus round in 0.1-0.2 cm [2, 5]: 21.00 ± 3.74 numbers; Proliferation Rate (%) [2, 5]: 66.6 ± 17.0%; Calluses (numbers), callus round in 0.1-0.2 cm [2, 6]: 6.00 ± 5.35 numbers; Proliferation Rate (%) [2, 6]: 23.3 ± 4.7% |
| O=C(O)Cc1cccc2ccccc12 [NAA, 1-Naphthaleneacetic acid] |  |  |  |  |  |  |  |  |  |  |  |  |  |  |  |  |  |  | 54.33 ± 9.46 numbers | 96.6 ± 17.0% | Calluses (numbers), callus round in 0.1-0.2 cm [2, 5]: 23.67 ± 1.25 numbers; Proliferation Rate (%) [2, 5]: 53.3 ± 20.6%; Calluses (numbers), callus round in 0.1-0.2 cm [2, 6]: 0.00 ± 0.00 numbers; Proliferation Rate (%) [2, 6]: 23.3 ± 4.7% |
